Experimental data from patent US9121026B2 (priority 2004, dated 2015).
“And” between values parts separate entries of the source, which are not always exact repeats. Equal values may be shown once.

How the values were obtained:
Type in all cases: cell-based, Saccharomyces cerevisiae
[1] = tested on: RE700A i PCDR1-HXT7 (IT[CDR1]); assay: Growth inhibition of IT[CDR1] by 2-DG; settings: 20 h 28° C., maltose, regarding growth in the absence of 2-DG
Experimental: FIG. 7: Growth inhibition of RE700A and IT[CDR1] by 2-DG. RE700A and IT[CDR1] were incubated for 20 h at 28° C. with maltose (2% (w/v)) as the sole carbon source and increasing 2-DG concentrations as indicated. The optical density was measured at 600 nm every 15 minutes and the integral under the growth curve was calculated. Inhibition of growth is shown in percent regarding growth in the absence of 2-DG. Growth of IT[CDR1] was inhibited by 45% at a 2-DG concentration of 0.01% (w/v), by 91% at a 2-DG concentration of 0.03% (w/v), by 92% at a 2-DG concentration of 0.05% (w/v), by 92% at a 2-DG concentration of 0.1% (w/v), by 94% at a 2-DG concentration of 1% (w/v), by 95% at a 2-DG concentration of 2% (w/v) and by 95% at a 2-DG concentration of 3% (w/v).
(3) Integrated screening system for inhibitors of PCDR1: S. cerevisiae strain RE700A was genetically modified as described in Example 1 and 2 to yield strain IT[CDR1], chromosomally expressing HXT7 under the control of the promoter of CDR1 (PCDR1) (for the complete genotype see Table 1). The inhibition of growth of IT[CDR1] by 2-DG was tested. The growth of this strain was inhibited by more than 90% at a 2-DG concentration of 0.03% (w/v) (FIG. 7)

[2] = tested on: RE700A i PPDR5-HXT7 (IT[PDR]); assay: Growth inhibition of IT[PDR] by 2-DG; settings: 20 h 28° C., maltose; for Inhibition of growth: IT[PDR], in percent of growth of RE700A
Experimental: (B) RE700A, ICFP and IT[PDR] were incubated 20 h at 28° C. with maltose (2% (w/v)) as the sole carbon source and the indicated 2-DG concentrations. The optical density was measured at 600 nm every 15 minutes and the integral under the growth curve is calculated. Inhibition of growth of ICFP and IT[PDR] is shown in percent of growth of RE700A. Growth of ICFP was inhibited by 15% at 0.01% (w/v) 2-DG, by 74% at 0.03% (w/v) 2-DG, by 80% at 0.05% (w/v) 2-DG and by 83% at 0.1% (w/v) 2-DG. Growth of IT[PDR] was inhibited by 21% at 0.01% (w/v) 2-DG, by 79% at 0.03% (w/v) 2-DG, by 88% at 0.05% (w/v) 2-DG and by 96% in 0.1% (w/v) 2-DG.
(§1) (A) Growth inhibition of RE700A i PPDR5-HXT7 (IT[PDR]), RE700A Δpdr1 tok1::PPDR5-HXT7, RE700A Δpdr3 tok1::PPDR5-HXT7 and RE700A Δpdr1,pdr3 tok1::PPDR5-HXT7 at increasing 2-DG concentrations. RE700A i PPDR5-HXT7 (IT[PDR]), RE700A Δpdr1 tok1::PPDR5-HXT7, RE700A Δpdr3 tok1::PPDR5-HXT7 and RE700A Δpdr1,pdr3 tok1::PPDR5-HXT7 were incubated 20 h at 28° C. with Maltose (2% (w/v)) as the sole carbon source and 2-DG concentrations as indicated. The optical density was measured at 600 nm every 15 minutes and the integral under the growth curve was calculated. Inhibition of growth caused by 2-DG is shown in percent. The growth of the strain RE700A tok1::PPDR5-HXT7 (IT[PDR]) was inhibited by 50% at 0.02% (w/v) 2-DG. Growth of the strains RE700A Δpdr1 tok1::PPDR5-HXT7 and RE700A Δpdr3 tok1::PPDR5-HXT7 was inhibited by 50% at 0.026% (w/v) 2-DG.
Strain growth: The growth of the strains in liquid medium was determined by measuring the optical density at 600 nm. To obtain growth curves, measurements were performed every 15 min. Alternatively, start and endpoint (after 12-16 h) measurements were carried out.

[3] = tested on: RE700A Δpdr3 tok1::PPDR5long-HXT7; assay: Growth of RE700A Δpdr3 tok1::PPDR5long-HXT7 in the presence of 2-DG; settings: RE700A Δpdr3 tok1::PPDR5long-HXT7, 20 h 28° C.
Experimental: (§2) (B) Relative growth of RE700A tok1::PPDR5long-HXT7, RE700A Δpdr1 tok1::PPDR5long-HXT7, RE700A Δpdr3 tok1::PPDR5long-HXT7 and RE700A Δpdr1,3 tok1::PPDR5long-HXT7 in the presence of 2-DG. Cells were incubated for 20 h at 28° C. with 2-DG at different concentrations. […] The standard error of the mean (n=5) is indicated.

[4] = tested on: RE700A Δpdr1,3 tok1::PPDR5long-HXT7; assay: Growth of RE700A Δpdr1,3 tok1::PPDR5long-HXT7 in the presence of 2-DG
Experimental: as §2

[5] = tested on: RE700A Δpdr1 tok1::PPDR5-HXT7; assay: Growth inhibition of RE700A Δpdr1 tok1::PPDR5-HXT7 by 2-DG; settings: RE700A Δpdr1 tok1::PPDR5-HXT7, maltose, 20 h 28° C.
Experimental: as §1
All strains expressing HXT7 were tested for sensitivity to 2-DG. The strains expressing GFP under the control of PPDR5 were additionally analysed for GFP fluorescence in comparison to RE700Ae PPDR5-GFP (strain CQ[PDR]).

O=CC[C@@H](O)[C@H](O)[C@H](O)CO [2-DG, 2-deoxy-glucose]
Inhibition of growth ([1]; 0.01% (w/v) 2-DG): 45% | Inhibition of growth ([1]; 0.05% (w/v) 2-DG): 92% | Inhibition of growth ([1]; 0.1% (w/v) 2-DG): 92% | Inhibition of growth ([1]; 1% (w/v) 2-DG): 94% | Inhibition of growth ([1]; 2% (w/v) 2-DG): 95% | Inhibition of growth ([1]; 3% (w/v) 2-DG): 95% | Inhibition of growth ([2]; 0.01% (w/v) 2-DG): 21% | Inhibition of growth ([2]; 0.03% (w/v) 2-DG): 79% | Inhibition of growth ([2]; 0.05% (w/v) 2-DG): 88% | Inhibition of growth ([2]; 0.1% (w/v) 2-DG): 96% | 2-DG concentration for 50% growth inhibition ([2]; RE700A tok1::PPDR5-HXT7 (IT[PDR]), liquid media): 0.021 % (w/v) and 0.02 % (w/v) | 2-DG concentration for 50% growth inhibition [3]: 0.029 % (w/v) | Sensitivity to 2-DG compared with the other PPDR5long-HXT7 strains ([4]; RE700A Δpdr1,3 tok1::PPDR5long-HXT7, 20 h 28° C., n=5): far less sensitive | 2-DG concentration for 50% growth inhibition ([4]; RE700A Δpdr1,3 tok1::PPDR5long-HXT7, liquid media, 20 h 28° C.): 0.6 % (w/v) | Increase of tolerance to 2-DG ([4]; RE700A Δpdr1,3 tok1::PPDR5long-HXT7 versus RE700A Δpdr1 tok1::PPDR5long-HXT7): ~10 fold | 2-DG concentration for 50% growth inhibition [5]: 0.026 % (w/v)
